Measurements taken from US9834823B2, “Primers, assays and methods for detecting an E. coli subtype” (priority 2012, dated 2017).
Values joined by “and” are separate entries in the source; they are usually repeats but may differ in a detail not shown here. Equal entries are not always repeated.

Key:
Format in all cases: cell-based
[1] = test system: extraintestinal Escherichia coli isolates; assay: Antimicrobial susceptibility testing (CLSI breakpoints), Olmsted County isolates; conditions: for Resistance prevalence among H30 ST131: H30 ST131 subclone, N = 70; for Resistance prevalence among non-H30 ST131: non-H30 ST131, N = 10
[2] = test system: Escherichia coli clinical isolates from U.S. veterans; assay: Susceptibility testing (broth microdilution or disk diffusion) at VAMCs with population back-calculations; conditions: for Prevalence of resistance, H30 ST131: H30 ST131 subclone isolates (H30 subclone vs. others); for Prevalence of resistance, ST131: ST131 isolates (ST131 vs. others); for Prevalence of resistance, Total (%): all isolates; for ST131's overall contribution to antimicrobial resistance within the source E. coli population: back-calculations; for Estimated fraction due to ST131: fraction of resistance phenotype due to ST131; for Overall prevalence in population, %: resistance phenotype, back-calculated with 29% FQ resistance
[3] = test system: Escherichia coli clinical isolates (ESBL-positive and ESBL-negative; ST131 subclones); assay: Broth microdilution antimicrobial susceptibility, NorthShore ESBL case-control isolates; conditions: for No. of resistant isolates (column %), H30-Rx (N = 47): H30-Rx subclone isolates (N = 47) within the H30 ST131 subclone; for No. of resistant isolates (column %), H30, non-Rx (N = 15): H30 non-Rx isolates (N = 15) within the H30 ST131 subclone; for No. of resistant isolates (column %), H30 (N = 62): H30 subclone isolates (N = 62) among 71 E. coli ST131 isolates; for No. of resistant isolates (column %), Non-H30 (N = 9): non-H30 isolates (N = 9) among 71 E. coli ST131 isolates
Excerpt: As reported elsewhere, the 267 E. coli study isolates were collected between 2007 and 2010 as part of a prospective case-control study conducted at NorthShore University HealthSystem (Banerjee, R J et al. “Predictors and molecular epidemiology of community-onset extended-spectrum beta-lactamase (ESBL) Escherichia coli infection in a Midwestern community,” 2013 Infect Control Hosp Epidemiol; in press). Cases were defined as adults with ESBL-producing E. coli cultured from any specimen type. Controls were defined as the 1 or 2 patients with non-ESBL E. coli isolates identified just subsequent to the case isolate, and with the same specimen type and location of collection. Isolates obtained in the outpatient setting or within 48 hours of hospital admission were considered causes of community-associated infection. Further study details are as described (Banerjee, R J et al. “Predictors and molecular epidemiology of community-onset extended-spectrum beta-lactamase (ESBL) Escherichia coli infection in a Midwestern community,” 2013 Infect Control Hosp Epidemiol; in press).
The resistance score was the total number of agents to which an isolate was resistant. This study was approved by the NorthShore and VA Medical Center institutional review boards.

[4] = all non-H30 isolates (H30 subclone vs. others)
[5] = all non-ST131 isolates (ST131 vs. others)
[6] = resistance prevalence among H30 ST131 subclone isolates relative to all other isolates
[7] = resistance prevalence among ST131 isolates relative to all other isolates
[8] = ESBL-negative isolates, All N = 167
[9] = ESBL-negative isolates, Non-ST131 N = 145
[10] = ESBL-negative isolates, ST131 N = 22
[11] = ESBL-positive isolates, All N = 100
[12] = ESBL-positive isolates, Non-ST131 N = 51
[13] = ESBL-positive isolates, ST131 N = 49

| Substance | No. of resistant isolates (column %) ([1]; All isolates, N = 299) | Resistance prevalence among H30 ST131 [1] | No. of resistant isolates (column %) ([1]; Other STs, N = 129) | No. of resistant isolates (column %) ([1]; ST9, N = 32) | No. of resistant isolates (column %) ([1]; ST69, N = 15) | No. of resistant isolates (column %) ([1]; ST73, N = 25) | No. of resistant isolates (column %) ([1]; ST127, N = 18) | No. of resistant isolates (column %) ([1]; ST131, N = 80) | Resistance prevalence among non-H30 ST131 [1] | Prevalence of resistance, H30 ST131 [2] | Prevalence of resistance, ST131 [2] | Prevalence of resistance, Total (%) [2] | Prevalence of resistance, Others (%) [2, 4] | Prevalence of resistance, Others (%) [2, 5] | Estimated fraction due to ST131 [2] | Overall prevalence in population, % [2] | Prevalence ratio of resistance [2, 6] | Prevalence ratio of resistance [2, 7] | No. resistant (column %) [3, 8] | No. resistant (column %) [3, 9] | further results |
| --- | --- | --- | --- | --- | --- | --- | --- | --- | --- | --- | --- | --- | --- | --- | --- | --- | --- | --- | --- | --- | --- |
| gentamicin | 29 (10) | 30% | 5 (4) | 0 | 0 | 0 | 1 (6) | 23 (29) | 20% | 28 | 29 | 11% | 5% | 3% | .76 | 11% | 5.4 | 8.2 | 12 (7) | 2 (1) | ST131's overall contribution to antimicrobial resistance within the source E. coli population [2]: 76%; No. resistant (column %) [3, 10]: 10 (45); No. resistant (column %) [3, 11]: 48 (48); No. resistant (column %) [3, 12]: 30 (59); No. resistant (column %) [3, 13]: 18 (37); No. of resistant isolates (column %), H30-Rx (N = 47) [3]: 15 (32) No. (column %); No. of resistant isolates (column %), H30, non-Rx (N = 15) [3]: 8 (53) No. (column %); No. of resistant isolates (column %), H30 (N = 62) [3]: 23 (37) No. (column %); No. of resistant isolates (column %), Non-H30 (N = 9) [3]: 5 (56) No. (column %) |
| trimethoprim-sulfamethoxazole [TMP/SMX] | 88 (29) | 47% | 37 (29) | 2 (6) | 8 (53) | 3 (12) | 1 (6) | 37 (46) | 40% | 47 | 42 | 22% | 14% | 13% | .56 | 22% | 3.3 | 2.4 | 31 (19) | 18 (12) | Prevalence of resistance, ST69 ([1]; ST69 isolates): 53%; Prevalence of resistance, ST131 ([1]; ST131 isolates): 46%; ST131's overall contribution to antimicrobial resistance within the source E. coli population ([2]; listed as TMP-SMZ): > 50% and 56%; No. resistant (column %) [3, 10]: 13 (59); No. resistant (column %) [3, 11]: 63 (63); No. resistant (column %) [3, 12]: 39 (76); No. resistant (column %) [3, 13]: 24 (49); No. of resistant isolates (column %), H30-Rx (N = 47) [3]: 21 (45) No. (column %); No. of resistant isolates (column %), H30, non-Rx (N = 15) [3]: 10 (67) No. (column %); No. of resistant isolates (column %), H30 (N = 62) [3]: 31 (50) No. (column %); No. of resistant isolates (column %), Non-H30 (N = 9) [3]: 6 (67) No. (column %) |
